Legend:
Assay type in all cases: in vivo, male Wistar rats
[1] = system: rat right ventricle wall thickening; assay: Test 2: effect to suppress right ventricle wall thickening in rats administered with L-NAME; details: compared with L-NAME alone; drinking water with L-NAME 1 g/L plus VPP 0.3 g/L or Enalapril 0.5 mg/L, ad libitum for eight weeks; FIG. 2
[2] = system: rat right ventricle wall thickening; assay: Test 4: effect to suppress right ventricle wall thickening in rats administered with L-NAME; details: L-NAME 1 g/L plus IPP 0.3 g/L or Enalapril 0.5 mg/L in water, eight weeks; for Normal (right ventricle wall equal to or smaller than reference value) / Thickening Positive (right ventricle wall thicker than reference value of rats without L-NAME): likelihood-ratio test, IPP group p < 0.01
Method: In order also to check the effect of the tripeptide Ile Pro Pro (IPP) to suppress the thickening of the right ventricle wall, a test was carried out in the same manner as in Test 3, and measurement and evaluation were made.
(§1) The test was carried out using three groups of male Wistar rats of seven weeks old (Japan SLC, Inc.), each of which group consist of 9 to 12 rats. After acclimation for a week, the animal received: water with L-NAME (manufactured by Sigma) being dissolved at a concentration of 1 g/L; water with L-NAME and IPP being dissolved at a concentration of 1 g/L and 0.3 g/L respectively; or water with L-NAME and angiotensin converting enzyme (ACE) inhibitor, Enalapril at a concentration of 1 g/L and 0.5 mg/L respectively, ad libitum for eight weeks. The dose of Enalapril was determined such that its activity to inhibit ACE was equivalent to the activity of IPP to inhibit ACE.
The rats were sacrificed by exsanguination under diethylether anesthesia. The heart was enucleated and then fixed with 10% neutral buffered formalin solution. Annularly-shaped tissue samples were prepared from the fixed heart by horizontally excising the lower part of the atria such that the right ventricle, septum, left ventricle, and coronary artery were included. The specimen were embedded in paraffin and cut into thin sections with a thickness of 3.0 to 3.5 μm using a microtome. Two to five sections per rat were prepared. Slices of the thin sections were stained with hematoxylin and eosin and the thickness of the right ventricle wall was measured. As for the measurement of the thickness of the ventricle wall, the thickness of a plural of the points for one section, each of which point was considered to have an average thickness, was actually measured with an ocular micrometer under a microscope. The average thickness was defined as the measured value of the section and the thickness of the ventricle wall of each individual was determined. The measurement and evaluation of the thickness was carried out by a pathologist who was not informed of the name of each sample.
The evaluation of the thickening of the ventricle wall involved the measurement of the thickness of the ventricle wall of six rats of the same age in weeks, which rats were fed with general tap water with no L-NAME being added. The average of those was defined as a reference value. In cases where the thickness of its ventricle wall was larger than the reference value, a rat was defined as one with the thickening, whereas in cases where the thickness of its ventricle wall was equal to or smaller than the reference value, a rat was considered to be normal. Using the number of the rats with the thickening and the normal rats, comparisons by likelihood-ratio test were made.

[3] = system: rat left ventricle wall thickening; assay: Test 3: effect to suppress left ventricle wall thickening in rats administered with L-NAME; details: compared with L-NAME alone; drinking water with L-NAME 1 g/L plus IPP 0.3 g/L or Enalapril 0.5 mg/L, ad libitum for eight weeks; FIG. 3
Method: as §1, with “The tripeptide Ile Pro Pro (IPP) was also tested for the suppressive effect against the thickening of the ventricle wall. The test” for “The test”, “9 to 11 rats. After” for “9 to 12 rats. After”, “week, the animals received: water” for “week, the animal received: water”
(§2) The rats were sacrificed by exsanguination under diethylether anesthesia. […] The sliced thin sections were stained with hematoxylin and eosin and the thickness of the left ventricle wall was measured. As for the measurement of the thickness of the ventricle wall, the thickness of a plural of the points for one section, each of which point was considered to have an average thickness, was actually measured with an ocular micrometer under a microscope. The average thickness was defined as the measured value of the section and subjected to statistical analysis. […]

[4] = system: rat heart septal wall thickening; assay: Test 5: effect to suppress heart septal wall thickening in rats administered with L-NAME; details: compared with L-NAME alone; drinking water with L-NAME 1 g/L plus IPP 0.3 g/L or Enalapril 0.5 mg/L, ad libitum for eight weeks; FIG. 4
[5] = system: rat left ventricle wall thickening; assay: Test 1: effect to suppress left ventricle wall thickening in rats administered with L-NAME; details: compared with L-NAME alone; drinking water with L-NAME 1 g/L plus VPP 0.3 g/L or Enalapril 0.5 mg/L, ad libitum for eight weeks; FIG. 1
Method: The tripeptide Val Pro Pro (VPP) was tested for the effect of suppressing the thickening of the left ventricle. The test was carried out using three groups of male Wistar rats of seven weeks old (Japan SLC, Inc.), each of which group consisted of 9 to 12 rats. […] The dose of Enalapril was determined such that its activity to inhibit ACE was equivalent to VPP's.
as §2, with “points per” for “points for”

Row | Compound | thickness of the right ventricle wall [1] | suppression of the thickening of the right ventricle wall (result in words) [2] | Normal (right ventricle wall equal to or smaller than reference value) [2] | Thickening Positive (right ventricle wall thicker than reference value of rats without L-NAME) [2] | thickness of the left ventricle wall [3] | thickness of the heart septal wall [4] | thickness of the left ventricle wall [5]
1 | CCOC(=O)[C@H](CCc1ccccc1)N[C@@H](C)C(=O)N1CCC[C@H]1C(=O)O [Enalapril] | did not show such an effect | did not exhibit such an effect | 8 rats | 1 rat^ rats | did not exhibit such an effect | did not exhibit the effect | did not exhibit the effect
2 | Ile Pro Pro [IPP] | – | suppressed the thickening of the right ventricle wall | 9 rats | 0 rats | showed a decrease in the thickness of the left ventricle wall | showed a decrease in the thickness of the heart septal wall | –
3 | Val Pro Pro [VPP] | showed a decrease in the thickness of the right ventricle wall | – | – | – | – | – | showed a decrease in the thickness of the left ventricle wall
